Results reported in patent US20260184701A1, “FIVE-MEMBERED HETEROARYL COMPOUND AND AGRICULTURAL AND HORTICULTURAL FUNGICIDE” (Nippon Soda Co., Ltd., priority 2022, published 2026).

Legend:
[1] = system: Glomerella cingulata; assay: Fungicidal effect test against fungi causing grape ripe rot disease (spore suspension, turbidity); type: cell-based; details: Colletotrichum gloeosporioides, 72 h; 25 ppm by volume; Vogel medium; 25° C., three days
[2] = system: Colletotrichum acutatum; assay: Fungicidal effect test against fungus causing apple anthracnose (spore suspension, turbidity); type: cell-based; details: 96 h, 25 ppm by volume, Czapek medium, 25° C., four days
[3] = system: Botrytis cinerea; assay: Control test of cucumber gray mold (sprayed young cucumber seedlings, inoculated); details: in Cucumis sativus, 96 h, read-out: control value
Description: Water was added to the emulsion to obtain a drug liquid in which the concentration of the five-membered heteroaryl compound according to the present invention reached a predetermined concentration. Then, the drug liquid was sprayed onto young cucumber seedlings cultivated in a nursery pot (variety “Jihai”-based, cotyledon stage), and then air-dried. […] They were left still in a moist room at 20° C.

Question: Which results are given for `C=C/C(=C\C=C\C)CCN/C(=N\OC)c1c(Oc2cccc(Br)c2)cnn1C` [a-2]?
Answer: inhibition of growth at 25 ppm [1]: ≥ 75%; inhibition of growth at 25 ppm [2]: ≥ 75%; pest or weed control at 25 ppm [3]: ≥ 75%

Question: Which results are given for `Cc1ccc(CC2CON=C(c3c(Oc4cccc(C5CC5)c4)cnn3C)N2)c(C)c1` (stereo not drawn) [a-3]?
Answer: inhibition of growth at 25 ppm [1]: ≥ 75%; inhibition of growth at 25 ppm [2]: ≥ 75%; pest or weed control at 125 ppm [3]: ≥ 75%

Question: What does the source list for `C=C(C)/C(=C\C=C\C)CC(CON)NCc1c(Oc2ccc(Br)cc2)cnn1C` (stereo not drawn) [a-5]?
Answer: inhibition of growth at 25 ppm [1]: ≥ 75%; inhibition of growth at 25 ppm [2]: ≥ 75%

Question: For `CO/N=C(\NCCC1CC=C(C)C=C1C)c1c(Oc2ccc(C3CC3)cc2)cnn1C` (stereo not drawn) [a-6], which inhibition of growth at 25 ppm [1] is on record?
Answer: The inhibition of growth at 25 ppm was at least 75%.

Question: Which results are given for `Cc1ccc(Oc2cnn(C)c2C2=NOCC(Cc3ccc(C)cc3C)N2)cc1` (stereo not drawn) [a-7]?
Answer: inhibition of growth at 25 ppm [1]: ≥ 75%; inhibition of growth at 25 ppm [2]: ≥ 75%

Question: With `CO/N=C(\NCCc1ccc(C)cc1)c1c(Oc2cccc(I)c2)cnn1C` [a-8] as the molecule, how does the inhibition of growth at 25 ppm [1] read?
Answer: The inhibition of growth at 25 ppm was at least 75%.

Question: What about the inhibition of growth at 25 ppm [2] of the same molecule?
Answer: Its inhibition of growth at 25 ppm is at least 75%.

Question: What about the pest or weed control at 125 ppm [3] of the same molecule?
Answer: The pest or weed control at 125 ppm was at least 75%.

Question: What does the source list for `CCc1cccc(Oc2cnn(C)c2C2=NOCC(Cc3ccc(C)cc3C)N2)c1` (stereo not drawn) [a-10, 5-(2,4-dimethylbenzyl)-3-(4-(3-ethylphenoxy)-1-methyl-1H-pyrazol-5-yl)-5,6-dihydro-4H-1,2,4-oxadiazine]?
Answer: inhibition of growth at 25 ppm [1]: ≥ 75%; inhibition of growth at 25 ppm [2]: ≥ 75%

Question: Which inhibition of growth at 25 ppm [1] does the source give for `Cc1cccc(Oc2nnn(C)c2C2=NOCC(Cc3ccc(C)cc3C)N2)c1` (stereo not drawn) [a-12] here?
Answer: The inhibition of growth at 25 ppm was at least 75%.

Question: And the inhibition of growth at 25 ppm [2]?
Answer: The inhibition of growth at 25 ppm was at least 75%.

Question: And the pest or weed control at 25 ppm [3]?
Answer: The pest or weed control at 25 ppm was at least 75%.

Question: What about the pest or weed control at 125 ppm [3] of the same molecule?
Answer: The pest or weed control at 125 ppm was at least 75%.

Question: Which results are given for `CO/N=C(\NCCc1ccc(C)cc1)c1c(Oc2ccc(Cl)c(C)c2)nnn1C` [a-13]?
Answer: inhibition of growth at 25 ppm [1]: ≥ 75%; inhibition of growth at 25 ppm [2]: ≥ 75%

Question: How did the inhibition of growth at 25 ppm [1] turn out when `CO/N=C(\NCCc1ccc(C)cc1C)c1c(Oc2cccc(C(F)(F)F)c2F)nnn1C` [a-16] was run?
Answer: The inhibition of growth at 25 ppm was at least 75%.

Question: What about the inhibition of growth at 25 ppm [2] of the same molecule?
Answer: The inhibition of growth at 25 ppm was at least 75%.

Question: How did the inhibition of growth at 25 ppm [1] turn out when `C/C=C(C)\C=C(\C)CCCN/C(=N\OC)c1c(Oc2cccc(Cl)c2)cnn1C` [a-17] was run?
Answer: Its inhibition of growth at 25 ppm is at least 75%.

Question: And the inhibition of growth at 25 ppm [2]?
Answer: The inhibition of growth at 25 ppm was at least 75%.

Question: How did the inhibition of growth at 25 ppm [1] turn out when `Cc1cccc(Oc2c(Cl)nn(C)c2C2NOCC(Cc3ccc(C)cc3C)N2)c1` (stereo not drawn) [a-18] was run?
Answer: Its inhibition of growth at 25 ppm is at least 75%.

Question: And the inhibition of growth at 25 ppm [2]?
Answer: The inhibition of growth at 25 ppm was at least 75%.

Question: How did the inhibition of growth at 25 ppm [1] turn out when `C/C=C(C)\C=C(\C)CCC1CON=C(c2c(Oc3cccc(Br)c3F)cnn2C)N1` (stereo not drawn) [a-19] was run?
Answer: Its inhibition of growth at 25 ppm is at least 75%.

Question: What about the inhibition of growth at 25 ppm [2] of the same molecule?
Answer: Its inhibition of growth at 25 ppm is at least 75%.

Question: Which results are given for `CCn1ncc(Oc2cccc(C)c2)c1CNC(CON)Cc1ccc(C)cc1C` (stereo not drawn) [a-20]?
Answer: inhibition of growth at 25 ppm [1]: ≥ 75%; inhibition of growth at 25 ppm [2]: ≥ 75%

Question: What does the source list for `C/C=C(Cl)\C=C(\Cl)CCC1CON=C(c2c(Oc3cccc(C)c3)cnn2CC)N1` (stereo not drawn) [a-21]?
Answer: inhibition of growth at 25 ppm [1]: ≥ 75%; inhibition of growth at 25 ppm [2]: ≥ 75%

Question: For `C=C/C(=C\C=C\Br)CCN/C(=N\OC)c1c(Oc2cccc(C)c2)cnn1CC` [a-22], which inhibition of growth at 25 ppm [1] is on record?
Answer: The inhibition of growth at 25 ppm was at least 75%.

Question: And the inhibition of growth at 25 ppm [2]?
Answer: The inhibition of growth at 25 ppm was at least 75%.

Question: With `CO/N=C(\NCCc1ccc(Br)cc1)c1c(Oc2cccc(C)c2)cnn1C` [a-23] as the molecule, how does the inhibition of growth at 25 ppm [1] read?
Answer: The inhibition of growth at 25 ppm was at least 75%.

Question: What about the inhibition of growth at 25 ppm [2] of the same molecule?
Answer: Its inhibition of growth at 25 ppm is at least 75%.

Question: Which results are given for `Cc1ccc(CC2CON=C(c3c(Oc4cccc(Br)c4)cnn3CC(F)(F)F)N2)cc1` (stereo not drawn) [a-24]?
Answer: inhibition of growth at 25 ppm [1]: ≥ 75%; inhibition of growth at 25 ppm [2]: ≥ 75%

Question: For `Cn1ncc(Oc2cccc(C(F)(F)F)c2)c1C1=NOCC(c2cccs2)N1` (stereo not drawn) [a-25, 3-(1-methyl-4-(3-(trifluoromethyl)phenoxy)-1H-pyrazol-5-yl)-5-(thiophen-2-yl)-5,6-dihydro-4H-1,2,4-oxadiazine], which inhibition of growth at 25 ppm [1] is on record?
Answer: Its inhibition of growth at 25 ppm is at least 75%.

Question: Which inhibition of growth at 25 ppm [1] does the source give for `Cc1ccc(C2CON=C(c3c(Oc4cccc(C(F)(F)F)c4)cnn3C)N2)s1` (stereo not drawn) [a-26, 3-(1-methyl-4-(3-(trifluoromethyl)phenoxy)-1H-pyrazol-5-yl)-5-(5-methylthiophen-2-yl)-5,6-dihydro-4H-1,2,4-oxadiazine] here?
Answer: Its inhibition of growth at 25 ppm is at least 75%.

Question: And the inhibition of growth at 25 ppm [2]?
Answer: The inhibition of growth at 25 ppm was at least 75%.

Question: With `C=C/C(=C\C=C\C)CC1CON=C(c2c(Oc3cccc(C)c3)cnn2C(C)C)N1` (stereo not drawn) [a-27] as the molecule, how does the inhibition of growth at 25 ppm [1] read?
Answer: The inhibition of growth at 25 ppm was at least 75%.

Question: What about the inhibition of growth at 25 ppm [2] of the same molecule?
Answer: The inhibition of growth at 25 ppm was at least 75%.

Question: And the pest or weed control at 25 ppm [3]?
Answer: Its pest or weed control at 25 ppm is at least 75%.

Question: What about the pest or weed control at 125 ppm [3] of the same molecule?
Answer: The pest or weed control at 125 ppm was at least 75%.

Question: How did the inhibition of growth at 25 ppm [1] turn out when `Cc1cc(C2CON=C(c3c(Oc4cccc(C(F)(F)F)c4)cnn3C)N2)c(C)s1` (stereo not drawn) [a-28] was run?
Answer: The inhibition of growth at 25 ppm was at least 75%.

Question: What about the inhibition of growth at 25 ppm [2] of the same molecule?
Answer: Its inhibition of growth at 25 ppm is at least 75%.

Question: With `Cc1ccc(C(CON)NCc2c(Oc3cccc(C(F)(F)F)c3)cnn2C)o1` (stereo not drawn) [a-29] as the molecule, how does the inhibition of growth at 25 ppm [1] read?
Answer: Its inhibition of growth at 25 ppm is at least 75%.

Question: `CCn1nc(Cl)c(Oc2cccc(C(F)(F)F)c2)c1C1=NOCC(Cc2ccc(C)cc2C)N1` (stereo not drawn) [a-30, 3-(3-chloro-1-ethyl-4-(3-(trifluoromethyl)phenoxy)-1H-pyrazol-5-yl)-5-(2,4-dimethylbenzyl)-5,6-dihydro-4H-1,2,4-oxadiazine] was tested. Which inhibition of growth at 25 ppm [1] did it give?
Answer: The inhibition of growth at 25 ppm was at least 75%.

Question: And the inhibition of growth at 25 ppm [2]?
Answer: Its inhibition of growth at 25 ppm is at least 75%.

Question: And the pest or weed control at 25 ppm [3]?
Answer: The pest or weed control at 25 ppm was at least 75%.

Question: What about the pest or weed control at 125 ppm [3] of the same molecule?
Answer: Its pest or weed control at 125 ppm is at least 75%.

Question: `C=C/C(=C\C=C\C)CC1CON=C(c2c(Oc3cccc(C)c3)c(C)nn2C)N1` (stereo not drawn) [a-31] was tested. Which inhibition of growth at 25 ppm [1] did it give?
Answer: The inhibition of growth at 25 ppm was at least 75%.

Question: What about the inhibition of growth at 25 ppm [2] of the same molecule?
Answer: Its inhibition of growth at 25 ppm is at least 75%.

Question: Which inhibition of growth at 25 ppm [1] does the source give for `CO/N=C(\NCCc1ccc(C)cc1C)c1c(Oc2cccc(C#N)c2)cnn1C` [a-33] here?
Answer: The inhibition of growth at 25 ppm was at least 75%.

Question: What about the inhibition of growth at 25 ppm [2] of the same molecule?
Answer: The inhibition of growth at 25 ppm was at least 75%.

Question: What does the source list for `C/C=C(C#N)\C=C(\C)CCC1CON=C(c2c(Oc3cccc(C)c3)cnn2C)N1` (stereo not drawn) [a-34]?
Answer: inhibition of growth at 25 ppm [1]: ≥ 75%; inhibition of growth at 25 ppm [2]: ≥ 75%; pest or weed control at 125 ppm [3]: ≥ 75%

Question: `C/C=C/c1ccc(CC2CON=C(c3c(Oc4cccc(C)c4)cnn3C)N2)c(C)c1` (stereo not drawn) [a-35] was tested. Which inhibition of growth at 25 ppm [1] did it give?
Answer: Its inhibition of growth at 25 ppm is at least 75%.

Question: And the inhibition of growth at 25 ppm [2]?
Answer: Its inhibition of growth at 25 ppm is at least 75%.
